Reference: PMC7886681, “Characterization and Validation of Arg286 Residue of IL-1RAcP as a Potential Drug Target for Osteoarthritis” (Frontiers in Chemistry, 2021)
Each block holds one molecule with its values, some of them ahead of it. Bridges are numbered along the chain shown (N, C = ends). Where no end group is shown, it is not given here.

What was measured:
[1] = molecular target: IL-1β:IL-1RI:IL-1RAcP complex (Homo sapiens, UniProt P01584+P14778); assay: Receptor complex immunoprecipitation pull-down with IL-1β western blot; type: biochemical; conditions: for IL-1β pull down inhibition: concentration not given
Protocol: IL-1β (20 ng μl^−1), IL-1RI (100 ng μl^−1), and 6xHis-tagged IL-1RAcP (40 ng μl^−1) were incubated with parent Peptide 1.0, a peptide variant, or the antibody inhibitor at various concentrations in 50 μl of PBS for 1 h at room temperature under rotation. In parallel, IL-1β, IL-1RI, and 6xHis-tagged IL-1RAcP were allowed to interact without parent Peptide 1.0 as a positive control. IL-1β by itself acted as a negative control. BcMag Protein G Magnetic Beads (50 μl, Bioclone) were washed 3 times with washing buffer (57.7 mM Na2HPO4, 42.3 mM NaH2PO4, pH 7.0), incubated with anti-6xHis mouse monoclonal antibody (1 μg, Abcam) for 30 min under rotation, isolated with neodymium magnets, and washed three times with washing buffer (57.7 mM Na2HPO4, 42.3 mM NaH2PO4, pH 7.0). Protein complex mixtures were incubated with the anti-His antibody decorated magnetic beads for 1 h at room temperature under rotation. Magnetic beads were separated (neodymium magnets) and washed 3X with buffer (57.7 mM Na2HPO4, 42.3 mM NaH2PO4, pH 7.0). Immunoprecipitated proteins were eluted with 20 μl of 4X sample buffer (10 min, 70°C) and analyzed by western blotting (anti-IL1β antibody).
SDS-PAGE was used to separate the immune-precipitated proteins in a 4–20% Tris-Glycine gel for 90 min at 125 V. The proteins were transferred for 2 h at 25 V onto an Immobilion PVDF membrane. After blocking the membrane using PBS containing 0.2% (w/v) I-Block and 0.1% Tween 20 for 1 h at room temperature (or overnight at 4°C), the membrane was subjected to a 2-h incubation with an anti-IL1β antibody (1:1,000, Cell Signaling Technology) while undergoing continuous agitation. The membrane was washed with PBS containing 0.1% Tween 20, then subjected to a 1-h incubation with the secondary anti-mouse horseradish-peroxidase-conjugated anti-IgG antibody (1:10,000, Invitrogen). The western blot was developed using a chemiluminescence system (SuperSignal^TM West Dura Extended Duration Substrate) and imaged using a Kodak 4000MM system.
Statistical tests (One-way ANOVA with Dunnett's Multiple Comparison adjustment) and non-linear regression of the dose response pull down peptide inhibition data were performed using GraphPad Prism.

[2] = tested on: IL-1β signaling in HEK-Blue IL-1β cells; assay: HEK-Blue IL-1β reporter cell assay (SEAP); type: cell-based, human; conditions: 2 μM peptide; IL-1β 2.5 ng/ml; triplicate
Protocol: HEK 293 reporter cells for human IL-1β (HEK-Blue IL-1β cells, Invivogen) were used to test the ability of peptide variants to inhibit IL-1β signaling pathway. HEK-Blue IL-1β cells were used according to manufacturer instructions. HEK-Blue IL-1β cells were cultured in Dulbecco's modified Eagle's medium (DMEM, Gibco) additioned with 10% heat inactivated fetal bovine serum (ATCC), 4.5 g/l glucose (Sigma), and 2 mM L-glutamine (ATCC) at 37°C, 5% CO2, in a humidified environment. HEK-Blue IL-1β cells (5,000 cells/well) were plated into 96-well tissue culture plates. The following day, cells were pre-treated for 1 h with peptide variants (Peptides 1.0, 1.1, 1.2, 2.0, 3.0, 4.0, and 4.3) or soluble IL-1RAcP (2 ng/μL) as a positive control. The cells were then stimulated with IL-1β at 2.5 ng/ml for 30 min. Following stimulation, the medium was changed and the inhibitors were added again to the plate. The cells were then left to incubate overnight. The next day, 160 μl of QUANTI-Blue (Invivogen) were added to each well. The plate was incubated at 37°C for 1 h. Then, the plate was placed in a spectrophotometer to detect the levels of secreted embryonic alkaline phosphatase (SEAP) in each well at a wavelength of 625–655 nm. Each peptide was tested in triplicate and an ANOVA test with Dunnett's test for multiple comparisons was performed to determine significance of inhibition.

[3] = molecular target: T1, interleukin 1β (IL-1β) (UniProt P01584 117-269); assay: pull-down; IL-1β (20 ng/µl), IL-1RI (100 ng/µl) and 6xHis-tagged IL-1RAcP (40 ng/µl) incubated with or without peptide at various concentrations in 50 µl PBS, 1 h, room temperature; captured on anti-6xHis antibody on Protein G magnetic beads; washed in phosphate buffer pH 7.0; western blot with anti-IL-1β; band intensity relative to the control without peptide; conditions: both partners purified
T1 construct: interleukin 1β used at 20 ng/µl in the pull-down; Species is surmised as human: PDB 4DEP was used for modelling, the reporter cells are for human IL-1β and the MS search used the human database

[4] = molecular target: T1, interleukin 1β (IL-1β); assay: cell-based or functional assay

Sequence of IL-1β:IL-1RI:IL-1RAcP complex (P01584 117-269): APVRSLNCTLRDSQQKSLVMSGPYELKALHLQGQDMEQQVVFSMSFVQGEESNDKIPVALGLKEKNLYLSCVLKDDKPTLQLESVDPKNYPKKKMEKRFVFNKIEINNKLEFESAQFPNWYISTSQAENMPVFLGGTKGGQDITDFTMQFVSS
Sequence of IL-1β:IL-1RI:IL-1RAcP complex (P14778 18-332 limits assumed): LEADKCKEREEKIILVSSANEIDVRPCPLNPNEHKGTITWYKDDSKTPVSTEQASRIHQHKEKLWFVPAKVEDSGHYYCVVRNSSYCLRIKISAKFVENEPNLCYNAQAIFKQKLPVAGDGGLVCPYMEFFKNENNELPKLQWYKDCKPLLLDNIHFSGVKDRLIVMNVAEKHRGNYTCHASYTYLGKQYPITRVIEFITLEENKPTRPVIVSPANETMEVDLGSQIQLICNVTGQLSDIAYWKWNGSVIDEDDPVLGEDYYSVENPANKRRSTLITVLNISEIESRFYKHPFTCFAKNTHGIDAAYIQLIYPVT

IL-1β concentration in the pulled down fraction, % of positive control ([1]; 0.04 nM peptide): 102%
IL-1β concentration in the pulled down fraction, % of positive control ([1]; 40 nM peptide): 36%
IL-1β pull down inhibition [1]: higher than 45%
Molecule: T C N Q SISHS R T QNQ TRTQ C LS (disulfide) [Peptide 4.2, cyclized Gln/Asn variant, cycle length 18]
difference in inhibition of IL-1β signaling versus Peptide 1.0 [2]: 42%

IL-1β concentration in the pulled down fraction, % of positive control ([1]; 0.4 nM peptide): 60%
IL-1β concentration in the pulled down fraction, % of positive control ([1]; 4 nM peptide): 51%
IL-1β concentration in the pulled down fraction, % of positive control ([1]; 40 nM peptide): 35%
IL-1β pull down inhibition [1]: higher than 45%
Molecule: T C NESISHS R TEDETRTQ C LS (disulfide) [Peptide 1.2, cyclized Peptide 1.0 variant, cycle length 18]
difference in inhibition of IL-1β signaling versus Peptide 1.0 [2]: 28%

IL-1β in the pulled-down fraction, % of positive control ([1]; 25 nM peptide): 99%
Molecule: TINESISHS A TEDETRTQILS [Peptide 2.0, negative control peptide with alanine instead of arginine in position 286]

IL-1β pull down ([1]; 12.5 nM peptide, relative to positive control without inhibitor): 60%
reduction of IL-1β pull down ([1]; 124 and 62 nM peptide): 26–30%
IL-1β pull down inhibition [1]: higher than 45%
Molecule: TINESISHS R TEDETRTQILS [Peptide 1.0, synthetic peptide mimicking IL-1RAcP Arg286 hot spot region]

IL-1β concentration in the pulled down fraction, % of positive control ([1]; 0.04 nM peptide): 112%
IL-1β pull down reduced to ([1]; 40 and 4 nM peptide, relative to positive control without inhibitor): 8–9%
IC50 ([1]; His-tagged IL-1RAcP pull-down, IL-1β western blot band intensity relative to positive control, non-linear regression of dose response, read-out: IC50, inhibition of IL-1β complex formation): 304 pM
IL-1β pull down inhibition [1]: higher than 45%
Molecule: TINESISHSRTEDETRMQILS [Peptide 3.0]

% IL-1β pull down with IL-1RAcP relative to no peptide (peptide at 12.5 nM) [3]: 60%
B1: Peptide 1.0 (peptide)
peptide: TINESISHSRTEDETRTQILS
notes: Linear, 21 residues; also called parent Peptide 1.0; lead peptide; source: synthetic peptide (Peptide 2.0, Inc; Fmoc/tBu solid phase, RP-HPLC to 98% purity)

HEK-Blue IL-1β reporter cells (SEAP), inhibition of IL-1β signalling at 2 µM peptide, difference from Peptide 1.0; blocks formation of the IL-1β complex with IL-1RI and IL-1RAcP [4]: 54%
IC50 [3]: 304 pM
B2: Peptide 3.0 (peptide)
peptide: TINESISHSRTEDETRMQILS
notes: IL-1RAcP stretch around Arg286 with methionine at 293; source: synthetic peptide (Peptide 2.0, Inc; Fmoc/tBu solid phase, RP-HPLC to 98% purity)

HEK-Blue IL-1β reporter cells (SEAP), inhibition of IL-1β signalling at 2 µM peptide, difference from Peptide 1.0; blocks formation of the IL-1β complex with IL-1RI and IL-1RAcP [4]: 28%
% IL-1β pull down with IL-1RAcP relative to no peptide (peptide at 0.4 nM) [3]: 60%
% IL-1β pull down with IL-1RAcP relative to no peptide (peptide at 4 nM) [3]: 51%
% IL-1β pull down with IL-1RAcP relative to no peptide (peptide at 40 nM) [3]: 35%
B3: Peptide 1.2 (peptide)
peptide: TCNESISHSRTEDETRTQCLS
modifications: disulfide 2-19
notes: IL-1RAcP stretch around Arg286 with two isoleucines replaced by cysteine; source: synthetic peptide (Peptide 2.0, Inc; Fmoc/tBu solid phase, RP-HPLC to 98% purity)

HEK-Blue IL-1β reporter cells (SEAP), inhibition of IL-1β signalling at 2 µM peptide, difference from Peptide 1.0; blocks formation of the IL-1β complex with IL-1RI and IL-1RAcP [4]: 42%
% IL-1β pull down with IL-1RAcP relative to no peptide (peptide at 40 nM) [3]: 36%
B4: Peptide 4.2 (peptide)
peptide: TCNQSISHSRTQNQTRTQCLS
modifications: disulfide 2-19
notes: IL-1RAcP stretch around Arg286 with two cysteines for isoleucines and Gln/Asn for Glu/Asp; source: synthetic peptide (Biomatik; Fmoc/tBu solid phase, RP-HPLC to 98% purity)
